Experimental findings from patent publication US20220305121A1, “N-ARYL SULFONAMIDE DERIVATIVES AS VACCINE ADJUVANT” (The Regents of the University of California, priority 2019, published 2022) are described below.

The structures appear in SMILES notation.

Holding throughout (format): cell-based
For one data set, the system named is NF-κB. Description: Measurement of NF-κB activation using THP1-Blue NF-κB cells (SEAP reporter, LPS as primary stimulus). The note with it: compound 5 μM + LPS, 20 hour incubation; two point normalized: compound 1 + LPS = 200%, LPS = 100%; mean. Here is the method:
THP1-Blue™ NF-κB cells were plated in 96-well plates at 10^5 cells/well in 100 μl RPMI supplemented with 10% fetal bovine serum (FBS, Omega Scientific, Inc., Tarzana, Calif.), 100 U/mL penicillin, 100 μg/ml streptomycin (Thermo Fisher Scientific) and Normocin (Invivogen). LPS was prepared in assay medium at a concentration of 20 μg/mL. Tested compounds were dissolved in DMSO at 1 mM as a stock solution and were further diluted in the LPS solution to a final concentration of 10 μM. 100 μL of this solution was then transferred to the plated cells to obtain a final concentration of LPS at 10 μg/mL and compound at 5 μM ([…]). The culture supernatants were harvested after a 20 hour incubation period, SEAP activity in the culture supernatants was determined by a colorimetric assay using QuantiBlue (Invivogen). Plate absorbance was read at 630 nm using a Tecan Infinite M200 plate reader (Männedorf, Switzerland). The SEAP concentration was directly proportional to NF-κB activity, which was 2-point normalized to yield activity of compound 1+LPS as 200% and activity for LPS as 100%.
Measurement of NF-κB Activation Using THP1-Blue NF-κB Cells. THP1-Blue NF-κB cells were plated in 96-well plates at 10^5 cells/well in 100 μL of RPMI supplemented with 10% fetal bovine serum (FBS, Omega Scientific, Inc., Tarzana, Calif.), 100 U/mL penicillin, 100 μg/mL streptomycin (Thermo Fisher Scientific), and Normocin (Invivogen). LPS was prepared in assay medium at a concentration of 20 μg/mL. Tested compounds were dissolved in DMSO at 1 mM as a stock solution and were further diluted in the LPS solution to a final concentration of 10 μM. 100 μL of this solution was then transferred to the plated cells to obtain a final concentration of LPS at 10 μg/mL and compound at 5 μM ([…]). The culture supernatants were harvested after a 20 hours incubation period. SEAP activity in the culture supernatants was determined by a colorimetric assay using QuantiBlue (Invivogen). Plate absorbance was read at 630 nm using a Tecan Infinite M200 plate reader (Mannedorf, Switzerland). The SEAP concentration was directly proportional to NF-κB activity, which was two-point normalized to yield activity of compound 1+LPS as 200% and activity for LPS as 100%.

Another data set deals with THP-1 cells. The experiment in a line: Cell viability assay (MTT). The following applies: compound 5 μM, 18 hours incubation; normalized to DMSO as 100%; mean. On the procedure:
THP-1 cells were plated in 96-well plates (10^5 cells/well) in 100 μL RPMI supplemented with 10% FBS, 100 U/mL penicillin and 100 μg/ml streptomycin. Compounds were dissolved in DMSO at 1 mM stock solution and were further diluted to 10 μM in the assay medium. 100 μL of this solution was added to the cells to obtain a final compound concentration of 5 μM ([…]). After 18 hours incubation, a solution of MTT in assay media (0.5 mg/mL) was added to each well and further incubated for 4 to 6 hours, followed by addition of cell lysis buffer (15% w/v SDS and 0.12% v/v 12N HCl aqueous solution), incubated overnight, and then absorbance measured at 570 nm using 650 nm as reference using Tecan Infinite M200 plate reader.
Cell Viability Assay. THP-1 cells were plated in 96-well plates (10^5 cells/well) in 100 μL RPMI supplemented with 10% FBS, 100 U/mL penicillin, and 100 μg/mL streptomycin. Compounds were dissolved in DMSO at 1 mM stock solution and were further diluted to 10 μM in the assay medium. 100 μL of this solution was added to the cells to obtain a final compound concentration of 5 μM ([…]). After 18 h incubation, a solution of MTT in assay media (0.5 mg/mL) was added to each well and further incubated for 4-6 hours, followed by addition of cell lysis buffer (15% w/v SDS and 0.12% v/v 12 N HCl aqueous solution), incubation overnight, and then absorbance was measured at 570 nm using 650 nm as reference using Tecan Infinite M200 plate reader.

Another data set has as its system ISRE. Description: Measurement of ISRE activity in ISRE-bla THP-1 cells (FRET, IFN-α as primary stimulus). The following applies: compound 5 μM + IFN-α 100 U/mL, 16 hours, two point normalized: compound 1 + IFN-α = 200%, IFN-α = 100%, mean; for activity at 5 µM: Homo sapiens, THP-1, read-out: ISRE % Activation. Here is the method:
ISRE-bla THP-1 cells were plated in 96-well plates at 5×10^4 cells/well in 50 μl RPMI supplemented with 10% dialyzed FBS (Atlanta Biologicals, Inc., GA), 0.1 mM nonessential amino acids, 1 mM sodium pyruvate, 100 U/mL penicillin and 100 μg/ml streptomycin. Type I IFN-α (R&D Systems, #11200-2) solution was prepared in assay medium at a concentration of 200 U/mL Tested compounds were dissolved in DMSO at 1 mM and were further diluted in the IFN-α solution to a final concentration of 10 μM. 50 μL of this solution was then transferred to the plated cells to obtain a final concentration of IFN-α at 100 U/mL and compound at 5 μM ([…]), The cells were incubated for 16 hours, after which 20 μL of 6×LiveBLAzer™ FRET B/G Substrate (CCF4-AM) mixture (prepared according to the manufacturer's instructions) was added to each well, Plates were incubated at room temperature in the dark for 3 hours. Fluorescence was measured on a Tecan Infinite M200 plate reader at an excitation wavelength of 405 nm, and emission wavelengths of 465 nm and 535 nm. Background values (cell free wells at the same fluorescence wavelength) were subtracted from the raw fluorescence intensity values and the emission ratios were calculated as the ratio of background subtracted fluorescence intensities at 465 nm to background subtracted fluorescence intensities at 535 nm. The ISRE activity values for these compounds were 2-point normalized to yield activity of compound 1+IFN-α as 200% and activity for IFN-α as 100%.
Measurement of ISRE Activity in ISRE-bla THP-1 Cells. ISREbla THP-1 cells were plated in 96-well plates at 5×10^4 cells/well in 50 μL of RPMI supplemented with 10% dialyzed FBS (Atlanta Biologicals, Inc., GA), 0.1 mM nonessential amino acids, 1 mM sodium pyruvate, 100 U/mL penicillin, and 100 μg/mL streptomycin. Type I IFN-α (R&D Systems, no. 11200-2) solution was prepared in assay medium at a concentration of 200 U/mL. Tested compounds were dissolved in DMSO at 1 mM and were further diluted in the IFN-α solution to a final concentration of 10 μM. 50 μL of this solution was then transferred to the plated cells to obtain a final concentration of IFN-α at 100 U/mL and compound at 5 μM ([…]). The cells were incubated for 16 hours, after which 20 μL of 6×LiveBLAzer FRET B/G substrate (CCF4-AM) mixture (prepared according to the manufacturer's instructions) was added to each well. Plates were incubated at room temperature in the dark for 3 hours. Fluorescence was measured on a Tecan Infinite M200 plate reader at an excitation wavelength of 405 nm and emission wavelengths of 465 and 535 nm. Background values (cell free wells at the same fluorescence wavelength) were subtracted from the raw fluorescence intensity values and the emission ratios were calculated as the ratio of background subtracted fluorescence intensities at 465 nm to background subtracted fluorescence intensities at 535 nm. The ISRE activity values for these compounds were two-point normalized to yield activity of compound 1+IFN-α as 200% and activity for IFN-α as 100%.

For the compound `COc1cc(NS(=O)(=O)c2ccc(CNC(=O)OC(C)(C)C)cc2)c(OC)cc1Cl` [Compound 20, tert-butyl (4-(N-(4-chloro-2,5-dimethoxyphenyl)sulfamoyl)benzyl) carbamate], the “NF-κB % Activation” value in the data set on NF-κB worked out at 100%. Besides, the “MTT % Viability” value with THP-1 cells is given as 109.2%. Further, the “ISRE % Activation” value in the data set with ISRE was 101%.
As for `C#CCN(c1cc(OC)c(Cl)cc1OC)S(=O)(=O)c1ccc(OCC)cc1` [Compound 42, N-(4-chloro-2,5-dimethoxyphenyl)-4-ethoxy-N-(prop-2-yn-1-yl) benzenesulfonamide], the “NF-κB % Activation” value with NF-κB is given as 232%. The “MTT % Viability” value in the data set on THP-1 cells came to 72.0%. The “ISRE % Activation” value in the data set on ISRE was 213%.
Turning to `CCCCCCCCCCCCN(c1cc(OC)c(Cl)cc1OC)S(=O)(=O)c1ccc(OCC)cc1` [Compound 39, N-(4-chloro-2,5-dimethoxyphenyl)-4-ethoxy-N-dodecylbenzenesulfonamide], the activity at 5 µM in the data set with NF-κB is 97%; in the data set with ISRE, 100%. Also, the “MTT % Viability” value with THP-1 cells stood at 93.0%.
As to `CCOc1ccc(S(=O)(=O)N(CCCN)c2cc(OC)c(N=[N+]=[N-])cc2OC)cc1` [Compound 63, N-(3-aminopropyl)-N-(4-azido-2,5-dimethoxyphenyl)-4-ethoxybenzenesulfonamide], the “MTT % Viability” value in the data set on THP-1 cells turned out to be 68.9%.
Consider `CCCCCCCN(c1cc(OC)c(Cl)cc1OC)S(=O)(=O)c1ccc(OCC)cc1` [Compound 38, N-(4-chloro-2,5-dimethoxyphenyl)-4-ethoxy-N-heptylbenzenesulfonamide], for which the activity at 5 µM with NF-κB turned out to be 108%; in the data set on ISRE, 95%. For the same compound, the “MTT % Viability” value in the data set on THP-1 cells was determined as 90.4%.
The like results for `CCCN(c1cc(OC)c(Cl)cc1OC)S(=O)(=O)c1ccc(OCC)cc1` [Compound 34, N-(4-chloro-2,5-dimethoxyphenyl)-4-ethoxy-N-propylbenzenesulfonamide] were, in that order, 227%, 199% and 71.6%.
The like results for `CCOc1ccc(S(=O)(=O)N(CCCC(=O)O)c2cc(OC)c(Cl)cc2OC)cc1` [Compound 53, 4-((N-(4-chloro-2,5-dimethoxyphenyl)-4-ethoxyphenyl)sulfonamido)butanoic acid] were, in that order, 230%, 151% and 73.4%.
For the compound `C#CCCCN(c1cc(OC)c(Cl)cc1OC)S(=O)(=O)c1ccc(OCC)cc1` [Compound 44, N-(4-chloro-2,5-dimethoxyphenyl)-4-ethoxy-N-(pent-4-yn-1-yl) benzenesulfonamide], in the data set on NF-κB, the “NF-κB % Activation” value was determined as 182%. Besides, the “MTT % Viability” value in the data set on THP-1 cells turned out to be 70.7%. For the same compound, the “ISRE % Activation” value in the data set on ISRE was 184%.
On to `COc1cc(NS(=O)(=O)c2ccc([N+](=O)[O-])cc2)c(OC)cc1Cl` [Compound 17, N-(4-chloro-2,5-dimethoxyphenyl)-4-nitrobenzenesulfonamide], for which the activity at 5 µM was determined as 101% in the data set on NF-κB and 103% with ISRE. Further, the “MTT % Viability” value in the data set on THP-1 cells was determined as 97.4%.
The like results for `CCCCN(c1cc(OC)c(Cl)cc1OC)S(=O)(=O)c1ccc(OCC)cc1` [Compound 35, N-(4-chloro-2,5-dimethoxyphenyl)-4-ethoxy-N-butylbenzenesulfonamide] were, in that order, 192%, 156% and 77.7%.
The like results for `COc1cc(NS(=O)(=O)c2ccc(N)cc2)c(OC)cc1Cl` [Compound 18, 4-Amino-N-(4-chloro-2,5-dimethoxyphenyl)benzenesulfonamide] were, in that order, 101%, 103% and 96.0%.
On the same counts, the results for `CCOc1ccc(S(=O)(=O)Nc2cc(OC)c(N)cc2OC)cc1` [Compound 10, N-(4-amino-2,5-dimethoxyphenyl)-4-ethoxybenzenesulfonamide] are 101%, 102% and 92.2%.
Take `CCOc1ccc(S(=O)(=O)Nc2cc(OC)c([N+](=O)[O-])cc2OC)cc1` [Compound 9, N-(2,5-dimethoxy-4-nitrophenyl)-4-ethoxybenzenesulfonamide]: the figures for the activity at 5 µM with NF-κB and with ISRE were 133% and 110%, respectively. In addition, the “MTT % Viability” value in the data set with THP-1 cells was found to be 79.2%.
For `CCCCOc1ccc(S(=O)(=O)Nc2cc(OC)c(Cl)cc2OC)cc1` [Compound 14, 4-Butoxy-N-(4-chloro-2,5-dimethoxyphenyl)benzenesulfonamide], the activity at 5 µM turned out to be 101% in the data set on NF-κB and 106% in the data set with ISRE. Besides, in the data set with THP-1 cells, the “MTT % Viability” value came out at 95.3%.
